This is an account of results in publication PMC12304826, “Redirecting the Peptide Cleavage Causes Protease Inactivation” (Angewandte Chemie (International Ed. in English), 2025).

For one test, the target named is T1, human cathepsin K (Homo sapiens, UniProt P43235).
T1 construct: purchased Enzo Life Sciences, Lörrach, Germany
T1 sequence (P43235 115-329): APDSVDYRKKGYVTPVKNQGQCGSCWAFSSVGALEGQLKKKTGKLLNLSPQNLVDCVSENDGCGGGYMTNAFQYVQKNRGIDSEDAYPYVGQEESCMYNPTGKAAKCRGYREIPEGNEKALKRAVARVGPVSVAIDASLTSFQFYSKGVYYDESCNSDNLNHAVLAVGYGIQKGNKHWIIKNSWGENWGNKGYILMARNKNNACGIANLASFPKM
Put plainly: Cathepsin K inhibition assay (Cbz-Leu-Arg-AMC). In kind it is biochemical. Conditions: 20 µM inhibitor, 60 min; read-out: Residual activity @ 20 µM (%) Cat K. How it is done: 1. Enzyme Inhibition Assays and Kinetic Data of Inhibition of Cathepsins B, L, K and S General. Human cathepsins were assayed either fluorimetrically or spectrophotometrically as noted below. The 10 mM inhibitor solutions were prepared in DMSO. The final concentration of DMSO in all assays was 2%. Non-linear regressions were conducted with GraFit 5. Residual cathepsin activity at an inhibitor concentration of 20 µM was determined from duplicate measurements based on the product formation after 60 min. Concentration dependent measurements were performed in duplicate measurements with five different inhibitor concentrations when the residual cathepsin activity in the presence of 20 µM inhibitor was below 70% (cathepsin B) or below 50% (cathepsins cathepsins L, K, and S). Progress curves were monitored for 60 min. First-order rate constants, kobs, were determined by non-linear regression following the equation [P] = vi × (1 – exp(-kobs × t))/kobs + d, where [P] is the product concentration, vi is the initial product formation rate, kobs is the observed first-order rate constant, and d is the offset. Mean values of kobs were plotted versus corresponding inhibitor concentrations [I], and second-order rate constants of inactivation, kinac/Ki, were obtained by linear regression. The equation kobs/[I] = (kinac/Ki)/(1 + [S]/Km) was used, where [S] is the substrate concentration and Km is the Michaelis-Menten constant. Standard errors (SE) refer to the linear regression. […] Cathepsin K inhibition assay.[1] Human recombinant cathepsin K (Enzo Life Sciences, Lörrach, Germany) was assayed fluorimetrically on a Monaco Safas spectrofluorometer flx or a Fluostar OPTIMA plate reader (BMG Labtech, Ortenberg, Germany). The wavelength for excitation was 360 nm and for emission 440 nm. The reactions were followed at 25 °C. A human cathepsin K stock solution of 23 µg/mL in 50 mM sodium acetate pH 5.5, 50 mM NaCl, 0.5 mM EDTA, 5 mM DTT was diluted 1:100 with assay buffer (100 mM sodium citrate pH 5.0, 100 mM NaCl, 1 mM EDTA, 0.01% CHAPS) containing 5 mM DTT and incubated for 30 min at 37 °C. A 10 mM stock solution of the 7-amino-4-methyl-coumarin (AMC)-based fluorogenic substrate Cbz-Leu-Arg-AMC was prepared in DMSO. The final concentration of the substrate was 40 μM (= 13.3 Km). When using the spectrofluorometer, into a cuvette containing 960 μL assay buffer, inhibitor solution and DMSO in a total volume of 16 μL, and 4 μL of the substrate solution were added and mixed. The reaction was initiated by adding 20 µL of the cathepsin K solution. When using the plate reader, into a well containing 192 µL assay buffer, inhibitor solution and DMSO in a total volume of 3.2 µL and 0.8 µL of the substrate solution were added and mixed. The reaction was initiated by adding 4 µL of the cathepsin K solution.
Cathepsin S inhibition assay.[2] […]
DTT, 0.5% Triton X-100 and 30% glycerol was diluted 1:100 with a 50 mM sodium phosphate buffer pH 6.5, 50 mM NaCl, 2 mM EDTA, 0.01% Triton X-100 and 5 mM DTT and incubated for 60 min at 37 °C. A 10 mM stock solution of the fluorogenic substrate Cbz-Phe-Arg-AMC was prepared in DMSO.
The assay was performed with a final substrate concentration of 40 µM (= 0.74 Km). When using the spectrofluorometer, into a cuvette containing 920 μL assay buffer, inhibitor solution and DMSO in a total volume of 16 μL, and 4 μL of the substrate solution were added and mixed. The reaction was initiated by adding 60 μL of the cathepsin S solution. When using the plate reader, into a well containing 188 µL assay buffer, inhibitor solution and DMSO in a total volume of 3.2 µL and 0.8 µL of the substrate solution were added and mixed. The reaction was initiated by adding […] of the cathepsin S solution.
With `CC(C)C[C@@H](C(=O)N1CCC[C@H]1C(=O)O)N(C)C(=O)Oc1ccc(Cl)cc1` [Compound 15], the remaining activity at 20 µM stood at 91%. Turning to `CC(C)C[C@H](NC(=O)Oc1ccc(NC(=O)N(Cc2ccccc2)Cc2ccccc2)c(Br)c1)C(=O)N1CCC[C@H]1C(=O)O` [Compound 26], the remaining activity at 20 µM came to 83%.

Take `COC(=O)C(Cc1ccccc1)NC(=O)C(CC(C)C)NC(=O)Oc1ccc(Cl)cc1` (stereo not drawn) [Compound 3]: the remaining activity at 20 µM was at least 98%.

Consider `CC(C)C[C@H](NC(=O)Oc1ccc(Cl)cc1)C(=O)N[C@@H](Cc1ccccc1)C(=O)OC(C)(C)C` [Compound 2], for which the remaining activity at 20 µM is 93%. The same measure, in the same setting: as for `CC(C)C[C@H](NC(=O)Nc1ccc(Cl)cc1)C(=O)N[C@@H](Cc1ccccc1)C(=O)O` [Compound 18], the figure is 87%; as for `CC(C)CC(NC(=O)Oc1ccc(NC(=O)C(c2ccccc2)c2ccccc2)c(Br)c1)C(=O)N1CCCC1C(=O)O` (stereo not drawn) [Compound 27], 90%. The same measure, in the same setting: as for `O=C(NC(CC1CCCCC1)C(=O)NC(Cc1ccccc1)C(=O)O)Oc1ccc(Cl)cc1` (stereo not drawn) [Compound 7], the figure is 60%; as for `CC(C)CC(NC(=O)Oc1ccc(NC(=O)C(c2ccccc2)c2ccccc2)c(Cl)c1)C(=O)N1CCCC1C(=O)O` (stereo not drawn) [Compound 28], 83%. `CC(C)C[C@H](NC(=O)Oc1ccc(NC(=O)Cc2ccccc2)c(Cl)c1)C(=O)N1CCC[C@H]1C(=O)O` [Compound 24]: the remaining activity at 20 µM is 95%. On the same count and under the same terms, as for `CC(C)CC(CNC(=O)Oc1ccc(Cl)cc1)C(=O)N[C@H](Cc1ccccc1)C(=O)O` (stereo partly drawn) [Compound 5], the figure is 70%; as for `CC(C)C[C@H](NC(=O)Oc1ccc(Cl)cc1)C(=O)N[C@@H](Cc1ccccc1)C(=O)O` [Compound 4], 92%; as for `CC(C)C[C@H](NC(=O)Oc1cccc(Cl)c1)C(=O)N1CCC[C@H]1C(=O)O` [Compound 23], 87%. Take `CC(C)CC(NC(=O)Oc1ccc(Cl)c(NC(=O)C(c2ccccc2)c2ccccc2)c1)C(=O)N1CCCC1C(=O)O` (stereo not drawn) [Compound 22]: the remaining activity at 20 µM came to 87%. For the compound `CC(C)C[C@H](NC(=O)Nc1ccc(Cl)cc1)C(=O)N1CCC[C@H]1C(=O)O` [Compound 19], the remaining activity at 20 µM was 92%. Take `CC(C)CC(NC(=O)Oc1ccccc1)C(=O)NC(Cc1ccccc1)C(=O)O` (stereo not drawn) [Compound 1]: the remaining activity at 20 µM came to 77%. As for `CC(C)C[C@H](NC(=O)Oc1ccc(Cl)cc1)C(=O)N1CCC[C@H]1C(=O)O` [Compound 8], the remaining activity at 20 µM stood at 91%. Consider `CC(C)C[C@H](NC(=O)Oc1ccc(-c2ccccc2)c(NC(=O)Cc2ccccc2)c1)C(=O)N1CCC[C@H]1C(=O)O` [Compound 21], for which the remaining activity at 20 µM came to 73%.

For the compound `CC(C)CC(CNC(=O)Oc1ccc(Cl)cc1)C(=O)N1CCC[C@@H]1C(=O)O` (stereo partly drawn) [Compound 9], the remaining activity at 20 µM is 85%. Still for that read-out and setting: as for `CC(C)CC(OC(=O)Nc1ccc(Cl)cc1)C(=O)N1CCC[C@H]1C(=O)O` (stereo partly drawn) [Compound 17], the figure is 95%; as for `CC(C)C[C@H](NC(=O)Oc1ccc(Cl)c(NC(=O)Cc2ccccc2)c1)C(=O)N1CCC[C@H]1C(=O)O` [Compound 20], 82%. With `CC(C)C[C@H](NC(=O)Oc1ccc(Cl)cc1)C(=O)N1CCCC[C@H]1C(=O)O` [Compound 10], the remaining activity at 20 µM is 93%.

Staying with this test, now noted: five inhibitor concentrations, 60 min progress curves.
For `O=C(NC(CC1CCCCC1)C(=O)NC(Cc1ccccc1)C(=O)O)Oc1ccc(NC(=O)C(Cc2ccccc2)Cc2ccccc2)c(Cl)c1` (stereo not drawn) [Compound 31], the “kinac/Ki ± SE Cat K” value came to 23.1 M⁻¹ s⁻¹. With `CC(C)CC(OC(=O)Nc1ccc(Cl)cc1)C(=O)N[C@@H](Cc1ccccc1)C(=O)O` (stereo partly drawn) [Compound 16], the “kinac/Ki ± SE Cat K” value came out at 185 M⁻¹ s⁻¹.

Consider `O=C(NC(CC1CCCCC1)C(=O)NC(Cc1ccccc1)C(=O)O)Oc1ccc(NC(=O)C(c2ccccc2)c2ccccc2)c(Cl)c1` (stereo not drawn) [Compound 30], for which the “kinac/Ki ± SE Cat K” value came to 3490 M⁻¹ s⁻¹.

Still in this test, the particulars now being: inhibitor not soluble at 20 µM; calculated for 20 µM from IC50 at two lower concentrations; read-out: Residual activity @ 20 µM (%) Cat K, approximated [e].
With `CC(C)CC(NC(=O)Oc1ccc(NC(=O)c2ccc(-c3ccccc3)cc2)c(Cl)c1)C(=O)N1CCCC1C(=O)O` (stereo not drawn) [Compound 25], the remaining activity at 20 µM is 76%. The same measure, in the same setting: with `CC(C)CC(NC(=O)Oc1ccc(NC(=O)C(c2ccccc2)c2ccccc2)c(Cl)c1)C(=O)NC(Cc1ccccc1)C(=O)O` (stereo not drawn) [Compound 29] the figure was 8%.

In the next test the target is T2, human cathepsin B (Homo sapiens, UniProt P07858).
T2 construct: purchased Calbiochem, Darmstadt, Germany
Put plainly: Cathepsin B reactivation experiment. In kind it is biochemical. The note with it: 30 min incubation with 0.5 µM, spin-filter removal of inhibitor, 200 min. How it is done: Figure S2. Reactivation experiment of human cathepsin B after incubation with the carbamate inhibitors 7 and 31. Cathepsin B (38 µg/mL) was incubated under assay conditions for 30 min with • DMSO, • 5 µM of compound 7, or • 0.5 µM of compound 31. After removal of assay buffer, DMSO and excessive inhibitor by spin-filter centrifugation, product formation was followed in the presence of Cbz-Arg-Arg-pNA as substrate for 200 min. A negative control (•) containing only substrate and no enzyme was used to measure spontaneous decay of the substrate.
(also on this page, place not known: time (min) 0 60 120 180 absorption 0 0.2 0.4 0.6)
(1 picture or pasted object on this page, not shown here)
`O=C(NC(CC1CCCCC1)C(=O)NC(Cc1ccccc1)C(=O)O)Oc1ccc(NC(=O)C(Cc2ccccc2)Cc2ccccc2)c(Cl)c1` (stereo not drawn) [Compound 31]: the “reversibility of cathepsin B inhibition” value was “irreversible”.
